IC50 and melting point data for 34 compounds are collected here from US6770650B2, “Cyclic amine derivatives-CCR-3 receptor antagonists” (Syntex (U.S.A.) LLC, priority 1997, dated 2004).

Where a name gives a salt, the structure may show the parent alone.

The target in the first series is T1, CCR-3 receptor (Homo sapiens, UniProt P51677).
T1 construct: expressed in transfected cells; host or cells: L1.2 cells (murine pre-B lymphoma line)
T1 sequence (P51677 1-355): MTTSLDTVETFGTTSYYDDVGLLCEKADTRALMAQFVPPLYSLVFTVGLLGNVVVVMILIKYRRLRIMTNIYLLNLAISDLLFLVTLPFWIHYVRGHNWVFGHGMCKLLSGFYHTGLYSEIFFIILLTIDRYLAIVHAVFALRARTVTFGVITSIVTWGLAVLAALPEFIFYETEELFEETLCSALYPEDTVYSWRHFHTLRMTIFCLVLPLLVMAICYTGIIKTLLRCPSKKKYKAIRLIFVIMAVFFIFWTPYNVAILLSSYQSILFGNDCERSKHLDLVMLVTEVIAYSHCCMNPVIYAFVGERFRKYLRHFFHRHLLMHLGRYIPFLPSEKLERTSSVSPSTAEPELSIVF
Briefly: CCR-3 Receptor Binding Assay, inhibition of 125I eotaxin binding to CCR-3 L1.2 transfectant cells. Particulars: concentration required to reduce 125I-eotaxin binding to the CCR-3 L1.2 transfected cells by 50%. On the procedure:
The CCR-3 antagonistic activity of the compounds of the invention was determined by their ability to inhibit the binding of ^125I eotaxin to CCR-3 L1.2 transfectant cells ((see Ponath, P. D. et al., J. Exp. Med., Vol. 183, 2437-2448, (1996)).
The assay was performed in Costar 96-well polypropylene round bottom plates. Test compounds were dissolved in DMSO and then diluted with binding buffer (50 mM HEPES, 1 mM CaCl2, 5 mM MgCl2, 0.5% bovine serum albumin (BSA), 0.02% sodium azide, pH 7.24) such that the final DMSO concentration was 2%. 25 μl of the test solution or only buffer with DMSO (control samples) was added to each well, followed by the addition of 25 μl of ^125I-eotaxin ([…]) (NEX314, New England Nuclear, Boston, Mass.) and 1.5×10^5 of the CCR-3 L1.2 transfected cells in 25 μl binding buffer. The final reaction volume was 75 μl.
After incubating the reaction mixture for 1 h at room temperature, the reaction was terminated by filtering the reaction mixture through polyethylenimine treated Packard Unifilter GF/C filter plate (Packard, Chicago, Ill.). The filters were washed four times with ice cold wash buffer containing 10 mm HEPES and 0.5M sodium chloride (pH 7.2) and dried at 65° C. for approximately 10 min. 25 μl/well of Microscint-20™ scintillation fluid (Packard) was added and the radioactivity retained on the filters was determined by using the Packard TopCount™.
The IC50 value (concentration of test compound required to reduce ^125I-eotaxin binding to the CCR-3 L1.2 transfected cells by 50%) for some of the compounds of the invention was: […]
Broadly, the IC50 is the concentration that gives 50% inhibition. Read a low IC50 as greater potency. In the case of `CC(C)C(CN1CCN(Cc2ccc(Cl)cc2)CC1)NS(=O)(=O)c1ccc(Cl)cc1` (racemic) [compound 118], the IC50 came to 1.5 µM. On the same count and under the same terms, under `CC(C)C(CN1CCN(Cc2ccc(Cl)c(Cl)c2)CC1)NC(=O)c1ccncc1` (stereo not shown) [compound 20] stands 0.952 µM. Compound `CC(C)(C)[C@@H](CN1CCC(Cc2ccc(Cl)c(Cl)c2)CC1)NC(=O)c1ccc(Cl)cc1` [compound 61] displayed an IC50 of 1.76 µM. Take `CCCC(CN1CCN(Cc2ccc(Cl)c(Cl)c2)CC1)NC(=O)c1ccc(C)cc1` (stereo not shown) [compound 23]: the IC50 is 1.33 µM. The compound `Cc1ccc(C(=O)N2CCC[C@@H]2CN2CCN(Cc3ccc(Cl)c(Cl)c3)CC2)cc1` [compound 78, {1-(4-Methylbenzoyl)-2(R)-[4-(3,4-dichlorobenzyl)piperazin-1-ylmethyl]}pyrrolidine Dihydrochloride Salt] gave an IC50 of 5.03 µM.

Turning to `CC(C)C(CN1CCN(Cc2ccc(Cl)cc2)CC1)NS(=O)(=O)c1ccc(C(F)(F)F)cc1` (stereo not shown) [compound 121], the IC50 turned out to be 3.52 µM.

In the case of `CC(C)[C@@H](CN1CCN(Cc2ccc(Cl)c(Cl)c2)CC1)NC(=O)c1ccc2ccccc2c1` [compound 19, N-{1(S)-[4-(3,4-Dichlorobenzyl)piperazin-1-ylmethyl]-2-methylpropyl}-2-naphthaleneamide], the IC50 amounted to 0.945 µM.

With `Cc1ccc(NC(=O)N[C@H](CN2CCC(Cc3ccc(Cl)c(Cl)c3)CC2)C(C)(C)C)cc1` [compound 100], the IC50 came to 2.47 µM. Regarding `CC(C)C(CN1CCN(Cc2ccc(Cl)c(Cl)c2)CC1)NC(=O)c1ccc2ccccc2n1` (stereo not shown) [compound 24], the IC50 worked out at 1.37 µM. In the case of “1-{1(RS)-[4-(4-Chlorobenzyl)piperazin-1-yl]-2-methylpropyl}-3-(3-methylphenyl)-2-thiourea [compound 107]”, the IC50 came to 1.14 µM.

Take `Cc1ccc(C(=O)N[C@H](CN2CCN(Cc3ccc(Cl)c(Cl)c3)CC2)C(C)C)cc1` [compound 8, N-{1(S)-[4-(3,4-Dichlorobenzyl)piperazin-1-ylmethyl]-2-methylpropyl}-4-methylbenzamide dihydrochloride salt]: the IC50 came to 0.24 µM. Regarding `CCOc1ccccc1NC(=O)NC(CN1CCN(Cc2ccc(Cl)c(Cl)c2)CC1)C(C)C` (stereo not shown) [compound 86], the IC50 stood at 1.16 µM. As to `COc1cccc(NC(=O)N[C@H](CN2CCC(Cc3ccc(Cl)c(Cl)c3)CC2)C(C)(C)C)c1` [compound 99], the IC50 stood at 2.36 µM. For the compound `COc1ccccc1NC(=S)NC(CN1CCN(Cc2ccc(Cl)c(Cl)c2)CC1)C(C)C` (stereo not shown) [compound 110], the IC50 is 3.05 µM.

Compound `CC(C)C(CN1CCN(Cc2ccc(Cl)c(Cl)c2)CC1)NC(=O)Nc1cccc(Br)c1` (stereo not shown) [compound 88] gave an IC50 of 1.47 µM. In turn, `CC(C)C(CN1CCN(Cc2ccc(Cl)c(Cl)c2)CC1)NC(=O)Cc1cccs1` (racemic) [compound 25, N-{1(RS)-[4-(3,4-Dichlorobenzyl)piperazin-1-ylmethyl]-2-methylpropyl}-2-(thiophene-2-yl)acetamide] yielded an IC50 of 1.46 µM. For the compound `CC(C)C(CN1CCN(Cc2ccc(Cl)c(Cl)c2)CC1)NS(=O)(=O)c1ccc(F)cc1` (stereo in doubt) [compound 117, N-{1(R)-[4-(3,4-Dichlorobenzyl)piperazin-1-ylmethyl]-2-methylpropyl}-4-flourobenzenesulfonamide], the half-maximal inhibitory concentration (IC50) turned out to be 1.33 µM. As to `CC(C)C(CN1CCN(Cc2ccc(Cl)c(Cl)c2)CC1)NC(=O)c1ccccn1.Cl.Cl` (racemic) [compound 7, N-{1(RS)-[4-(3,4-Dichlorobenzyl)piperazin-1-ylmethyl]-2-methylpropyl}picolinamide dihydrochloride salt], the IC50 was 0.415 µM. The same measure, in the same setting: then `CC(C)C(CN1CCN(Cc2ccc(Cl)cc2)CC1)NC(=S)Nc1cccc2ccccc12` (stereo not shown) [compound 109], with 2.84 µM; and `CC(=O)c1cccc(NC(=O)NC(CN2CCN(Cc3ccc(Cl)c(Cl)c3)CC2)C(C)C)c1` (stereo not shown) [compound 91], with 1.89 µM; and `CC(C)C(CN1CCN(Cc2ccc(Cl)cc2)CC1)NC(=O)Nc1ccccc1` (stereo not shown) [compound 89], with 1.68 µM.

System in another series: not given
Assay: not given
Details: not given
The melting point is the temperature of the solid-liquid transition. For `Cc1ccc(C(=O)N[C@H](CN2CCC(Cc3ccc(Cl)c(Cl)c3)CC2)C(C)C)s1` (as salt: HCl) [compound 71, N-{1-(R)-[4-(Dichlorobenzyl)piperidin-1-ylmethyl]-2-methylpropyl}-5-methylthiophene-2-carboxamide Hydrochloride Salt], the melting point was in the range of 45 to 47.5 °C. Regarding `COc1ccc(C(=O)N[C@H](CN2CCN(Cc3ccc(Cl)c(Cl)c3)CC2)C(C)C)cc1.Cl.Cl`, the melting point was 222.5 to 223 °C. In the case of `Cc1ccc(C(=O)N[C@H](CN2CCN(Cc3ccc(Cl)c(Cl)c3)CC2)C(C)C)cc1` (as salt: HCl) [compound 8, N-{1(S)-[4-(3,4-Dichlorobenzyl)piperazin-1-ylmethyl]-2-methylpropyl}-4-methylbenzamide dihydrochloride salt], the melting point fell in the range of 229 to 229.6 °C. Same read-out and setting: then `Cc1ccc(C(=O)N2CCC[C@@H]2CN2CCN(Cc3ccc(Cl)c(Cl)c3)CC2)cc1` (as salt: HCl) [compound 78, {1-(4-Methylbenzoyl)-2(R)-[4-(3,4-dichlorobenzyl)piperazin-1-ylmethyl]}pyrrolidine Dihydrochloride Salt], with 249.6 to 250.1 °C. `COc1cccc(NC(=O)NC(C(C)C)C2CCN(Cc3ccc(Cl)c(Cl)c3)CC2)c1` (racemic) [compound 132, 1-{1(RS)-[1-(3,4-Dichlorobenzyl)piperidin-4-yl]-2-methylpropyl}-3-(3-methoxyphenyl)urea]: the melting point lay in the range of 161.4 to 161.8 °C. Turning to `CC(C)(C)[C@@H](CN1CCC(Cc2ccc(Cl)c(Cl)c2)CC1)NC(=O)c1ccc(Cl)cc1` [compound 61], the melting point was 63 to 68 °C.

In the case of `CC(C)C(CN1CCN(Cc2ccc(Cl)c(Cl)c2)CC1)NC(=O)c1ccncc1` (stereo not shown) (as salt: HCl) [compound 20], the melting point was in the range of 150 to 153 °C. Turning to `Cc1ccc(C(=O)NC(CC2CCN(Cc3ccc(Cl)c(Cl)c3)CC2)C(C)C)cc1` (racemic) (as salt: hydrochloride) [compound 133], the melting point was in the range of 233.9 to 235.5 °C. Regarding `Cc1ccc(C(=O)N[C@H](CN2CCC(Cc3ccc(Cl)c(Cl)c3)CC2)C(C)C)cc1` (as salt: HCl) [compound 57, N-{1-(S)-[4-(3,4-Dichlorobenzyl)piperidin-1-ylmethyl]-2-methylpropyl}-4-methylbenzamide], the melting point was in the range of 87 to 90 °C. `Cc1ccc(C(=O)N[C@H](CN2CCN(Cc3ccc(Cl)c(Cl)c3)CC2)C(C)(C)C)cc1.Cl.Cl` had a melting point of 238 to 242 °C. `Cc1ccc(NC(=O)N[C@H](CN2CCC(Cc3ccc(Cl)c(Cl)c3)CC2)C(C)(C)C)cc1` (as salt: HCl) [compound 100]: the melting point lay within 109.5 to 111 °C. Turning to `COc1cccc(NC(=O)N[C@H](CN2CCC(Cc3ccc(Cl)c(Cl)c3)CC2)C(C)(C)C)c1` [compound 99], the melting point lay within 75.1 to 80.3 °C. As to `COc1cccc(NC(=O)N[C@H](CN2CCN(Cc3ccc(Cl)c(Cl)c3)CC2)C(C)C)c1` (as salt: HCl) [compound 98, 1-{1(S)-[4-(3,4-Dichlorobenzyl)piperazin-1-ylmethyl]-2-methylpropyl}-3-(3-methoxyphenyl)urea], the melting point lay within 97.5 to 99.5 °C.

`CC(C)C(CN1CCN(Cc2ccc(Cl)c(Cl)c2)CC1)NC(=O)c1ccccn1.Cl.Cl` (racemic) [compound 7, N-{1(RS)-[4-(3,4-Dichlorobenzyl)piperazin-1-ylmethyl]-2-methylpropyl}picolinamide dihydrochloride salt] yielded a melting point of 226.2 to 229.9 °C. As to `O=C(N[C@@H](CN1CCN(Cc2ccc(Cl)c(Cl)c2)CC1)C1CCCCC1)c1ccc(Cl)cc1` [compound 35, N-{1(R)-cyclohexyl-2-[4-(3,4-dichlorobenzyl)piperazin-1-yl]ethyl}-4-chloro-benzamide], the melting point lay in the range of 149 to 155 °C. Compound `CCCC(CN1CCN(Cc2ccc(Cl)c(Cl)c2)CC1)NC(=O)c1ccc(C)cc1` (stereo not shown) (as salt: HCl) [compound 23] returned a melting point of 199.5 to 203.5 °C.
